Test results as given in patent US20220160716A1 (SORBONNE UNIVERSITE, priority 2019, published 2022).

Tests used:
CDK2/A = target: T1, CDK2/A (Homo sapiens, UniProt P24941); experiment: Protein kinase catalytic activity assay, CDK2/cyclin A; type: biochemical; conditions: activator cyclin A; read-out: IC50 of protein kinases, CDK2/A
T1 construct: made in house

CDK5/p25 = target: T2, CDK5/p25 (Homo sapiens, UniProt Q00535); type: biochemical; conditions: activator p25; read-out: IC50 of protein kinases, CDK5/p25
T2 construct: made in house

DYRK1A = target: T3, DYRK1A (Homo sapiens, UniProt Q13627); experiment: Protein kinase catalytic activity assay, DYRK1A; type: biochemical; conditions: read-out: IC50 of protein kinases, DYRK1A
T3 construct: made in house

ABCB4-WT = target: T4, ABCB4-WT (Homo sapiens, UniProt P21439); experiment: ABCB4-mediated phosphatidylcholine secretion, HEK cells expressing ABCB4-WT; type: cell-based; conditions: for inhibition of ABCB4-WT-mediated PC secretion compared to roscovitine: 10 μM and 25 μM; for log IC50 on the PC secretion activity of ABCB4-WT / IC50: from dose-response curves of FIG. 4C; for IC50: read-out: IC50 on the PC secretion activity of ABCB4-WT
T4 construct: The subcloning of wild type (WT) ABCB4, isoform A (NM_000443.3), into pcDNA3 vector has been described; expressed in transfected cells; host or cells: HEK-293
Description: Cyclosporin A (CsA) was from Santa Cruz Biotechnologies (Dallas, Tex.). […] Each compound was solubilized in dimethylsulfoxide (DMSO) as 1000× concentrated stock solutions in order to treat cells with 5 μM to 100 μM final concentrations, using DMSO as control vehicle at the same dilution (0.1% DMSO for all conditions). The cells were treated 24 hours post-transfection with these drugs during 16 hours, except for the viability assays for which cells were treated during three days. After drug treatment, cells were used for immunoanalyses, cell viability assays or PC secretion assays.
HEK cells were seeded in 0.01% poly-L-lysine (Sigma) pre-coated 6-well plates of 10 cm^2 area per well (1.3×10^6 cells per well). After transient transfection of the empty vector (control), plasmids encoding ABCB4-WT or its variants, cells were incubated during 24 hours at 37° C. in serum-free medium supplemented with 0.5 mM sodium taurocholate (Sigma) and 0.02% fatty acid-free bovine serum albumin (Sigma). Then, the secreted PC was quantified from the collected media using a fluoro-enzymatic assay previously described (12). Each condition was analysed in triplicate, after background subtraction, and results were normalized to the expression levels of ABCB4 determined by immunoblots of the corresponding cell lysates.

ABCB4-I541F = ABCB4-I541F (Homo sapiens, UniProt P21439, I541F); experiment: Canalicular localisation of ABCB4-I541F by indirect immunofluorescence in HepG2 cells; type: cell-based; parameters: The subcloning of wild type (WT) ABCB4, isoform A (NM_000443.3), into pcDNA3 vector has been described; expressed in transfected cells; host or cells: HepG2 (immunofluorescence); conditions: 16 hours
Description: For indirect immunofluorescence, HepG2 cells were grown on glass coverslips and after transfection and treatments, they were fixed and permeabilized during 1 min at −20° C. in ice-cold methanol. Then ABCB4 and ABCC2 were immunolabelled using the mouse monoclonal P3II-26 (IgG2b) and M2I-4 (IgG1) antibodies (Enzo Life Sciences), respectively. […] For each experiment, all images were acquired with constant settings (acquisition time and correction of signal intensities).

ABCB4-L556R [1] = target: T5, ABCB4-L556R (Homo sapiens, UniProt P21439, L556R); experiment: Canalicular localisation of ABCB4-L556R by indirect immunofluorescence in HepG2 cells; type: cell-based; parameters: The subcloning of wild type (WT) ABCB4, isoform A (NM_000443.3), into pcDNA3 vector has been described; expressed in transfected cells; host or cells: HepG2 (immunofluorescence); conditions: 25 μM
Description: For indirect immunofluorescence, HepG2 cells were grown on glass coverslips and after transfection and treatments, they were fixed and permeabilized during 1 min at −20° C. in ice-cold methanol. Then ABCB4 and ABCC2 were immunolabelled using the mouse monoclonal P3II-26 (IgG2b) and M2I-4 (IgG1) antibodies (Enzo Life Sciences), respectively. AlexaFluor® 555 and AlexaFluor® 488 conjugated isotype-specific secondary antibodies (Thermo Fisher Scientific) and Hoechst 33342 (Thermo Fisher Scientific) were used to label ABCB4, ABCC2 and nuclei, respectively. Images were acquired using an IX83 inverted fluorescence microscope from Olympus (Rungis, France), equipped with a UPLSAPO 60XS2 silicone immersion objective and a Hamamatsu ORCA Flash4.0 digital CMOS camera, and analysed using Olympus CellSens Dimension Desktop version 1.16 and Adobe Photoshop version 8.0.1. For each experiment, all images were acquired with constant settings (acquisition time and correction of signal intensities).

ABCB4-I490T = ABCB4-I490T (Homo sapiens, UniProt P21439, I490T); experiment: Maturation of ABCB4-I490T by immunoblot in HEK cells; type: cell-based; parameters: The subcloning of wild type (WT) ABCB4, isoform A (NM_000443.3), into pcDNA3 vector has been described; expressed in transfected cells; host or cells: HEK-293 (immunoblot, PC secretion); conditions: 5 to 25 μM
Description: (§1) Western blots and indirect immunofluorescence were performed as previously described (2, 12). […] Saturated membranes were incubated with mouse monoclonal anti-ABCB4 (clone P3II-26; Enzo Life Sciences, Villeurbanne, France) or anti-α-tubulin (clone 1E4C11; ProteinTech, Manchester, United Kingdom) antibodies and then with peroxidase conjugated anti-mouse secondary antibodies (Sigma). Signals were detected with ECL prime western blotting detection reagent (GE Healthcare, Velizy-Villacoublay, France) and quantified in the linear range of detection using ImageJ 1.50i software (U.S. National Institutes of Health, Bethesda, Md.).

ABCB4-L556R [2] = target: T5, ABCB4-L556R; experiment: Maturation of ABCB4-L556R by immunoblot in HEK cells; type: cell-based; parameters: The subcloning of wild type (WT) ABCB4, isoform A (NM_000443.3), into pcDNA3 vector has been described; expressed in transfected cells; host or cells: HEK-293 (immunoblot, PC secretion); conditions: 5 to 25 μM
Description: as §1

Sequence of ABCB4-I490T (P21439 1-1279 isoform P21439-2 I490T): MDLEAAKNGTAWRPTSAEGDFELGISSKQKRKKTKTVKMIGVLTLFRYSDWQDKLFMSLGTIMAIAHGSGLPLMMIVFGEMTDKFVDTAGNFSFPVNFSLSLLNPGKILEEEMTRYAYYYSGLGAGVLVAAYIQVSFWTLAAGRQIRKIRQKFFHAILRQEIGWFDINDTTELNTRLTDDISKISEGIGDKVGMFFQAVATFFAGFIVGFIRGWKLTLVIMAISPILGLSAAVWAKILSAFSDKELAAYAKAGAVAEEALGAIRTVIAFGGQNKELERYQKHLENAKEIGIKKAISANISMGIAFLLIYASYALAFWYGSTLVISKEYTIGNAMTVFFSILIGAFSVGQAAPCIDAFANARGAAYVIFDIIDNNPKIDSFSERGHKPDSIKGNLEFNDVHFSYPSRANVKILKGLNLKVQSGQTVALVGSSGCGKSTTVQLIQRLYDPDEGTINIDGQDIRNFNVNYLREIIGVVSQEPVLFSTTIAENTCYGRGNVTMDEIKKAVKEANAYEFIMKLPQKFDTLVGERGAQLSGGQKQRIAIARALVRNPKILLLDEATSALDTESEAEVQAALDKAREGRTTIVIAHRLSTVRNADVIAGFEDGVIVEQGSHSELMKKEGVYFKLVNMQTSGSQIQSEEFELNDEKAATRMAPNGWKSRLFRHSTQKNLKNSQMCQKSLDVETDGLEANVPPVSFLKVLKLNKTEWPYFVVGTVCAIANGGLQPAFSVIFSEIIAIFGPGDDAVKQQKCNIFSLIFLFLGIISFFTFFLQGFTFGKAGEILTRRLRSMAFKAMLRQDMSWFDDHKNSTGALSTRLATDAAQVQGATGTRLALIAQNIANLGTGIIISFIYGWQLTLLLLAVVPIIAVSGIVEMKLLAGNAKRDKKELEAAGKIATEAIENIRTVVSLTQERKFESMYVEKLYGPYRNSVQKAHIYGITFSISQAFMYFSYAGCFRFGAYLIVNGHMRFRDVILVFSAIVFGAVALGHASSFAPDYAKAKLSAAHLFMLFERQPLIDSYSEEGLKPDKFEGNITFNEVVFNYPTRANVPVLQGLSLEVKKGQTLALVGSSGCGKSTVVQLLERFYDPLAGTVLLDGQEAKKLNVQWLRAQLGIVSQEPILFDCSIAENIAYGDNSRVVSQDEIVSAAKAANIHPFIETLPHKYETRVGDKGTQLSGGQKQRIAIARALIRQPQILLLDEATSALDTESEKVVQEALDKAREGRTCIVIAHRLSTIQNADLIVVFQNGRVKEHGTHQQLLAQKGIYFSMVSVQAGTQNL
Sequence of ABCB4-I541F (P21439 1-1279 isoform P21439-2 I541F): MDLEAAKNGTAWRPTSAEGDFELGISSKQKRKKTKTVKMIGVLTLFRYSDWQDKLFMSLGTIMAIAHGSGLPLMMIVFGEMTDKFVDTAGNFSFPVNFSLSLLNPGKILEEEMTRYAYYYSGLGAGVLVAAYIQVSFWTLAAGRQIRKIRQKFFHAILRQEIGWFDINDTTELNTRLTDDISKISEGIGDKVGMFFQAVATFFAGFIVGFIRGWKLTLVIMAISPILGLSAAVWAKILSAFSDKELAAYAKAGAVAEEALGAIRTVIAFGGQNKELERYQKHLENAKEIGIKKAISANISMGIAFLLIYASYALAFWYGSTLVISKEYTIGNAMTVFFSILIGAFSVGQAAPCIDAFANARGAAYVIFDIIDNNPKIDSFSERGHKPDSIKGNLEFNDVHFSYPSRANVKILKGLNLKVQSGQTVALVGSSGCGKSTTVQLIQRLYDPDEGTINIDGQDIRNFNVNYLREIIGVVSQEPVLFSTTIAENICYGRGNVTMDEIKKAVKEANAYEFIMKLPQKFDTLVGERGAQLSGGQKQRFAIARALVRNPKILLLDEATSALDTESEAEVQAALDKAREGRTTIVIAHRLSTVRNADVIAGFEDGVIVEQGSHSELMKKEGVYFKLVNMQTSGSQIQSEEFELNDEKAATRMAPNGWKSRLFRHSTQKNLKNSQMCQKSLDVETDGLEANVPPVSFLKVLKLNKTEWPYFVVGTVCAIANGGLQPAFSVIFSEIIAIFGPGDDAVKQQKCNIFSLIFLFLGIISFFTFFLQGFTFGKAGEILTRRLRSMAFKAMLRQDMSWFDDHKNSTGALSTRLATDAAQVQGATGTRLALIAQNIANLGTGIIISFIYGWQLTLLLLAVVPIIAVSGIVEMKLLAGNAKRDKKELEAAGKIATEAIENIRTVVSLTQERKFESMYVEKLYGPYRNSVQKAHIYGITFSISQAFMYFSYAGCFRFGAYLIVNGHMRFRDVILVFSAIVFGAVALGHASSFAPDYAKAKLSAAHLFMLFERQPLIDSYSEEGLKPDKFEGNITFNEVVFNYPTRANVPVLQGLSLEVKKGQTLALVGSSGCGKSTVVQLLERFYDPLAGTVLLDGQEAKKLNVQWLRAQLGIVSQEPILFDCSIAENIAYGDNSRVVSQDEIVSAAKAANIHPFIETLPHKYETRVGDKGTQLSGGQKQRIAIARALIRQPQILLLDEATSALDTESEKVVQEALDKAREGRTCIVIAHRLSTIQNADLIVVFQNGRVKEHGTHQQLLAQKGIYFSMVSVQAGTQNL
T5 sequence (P21439 1-1279 isoform P21439-2 L556R): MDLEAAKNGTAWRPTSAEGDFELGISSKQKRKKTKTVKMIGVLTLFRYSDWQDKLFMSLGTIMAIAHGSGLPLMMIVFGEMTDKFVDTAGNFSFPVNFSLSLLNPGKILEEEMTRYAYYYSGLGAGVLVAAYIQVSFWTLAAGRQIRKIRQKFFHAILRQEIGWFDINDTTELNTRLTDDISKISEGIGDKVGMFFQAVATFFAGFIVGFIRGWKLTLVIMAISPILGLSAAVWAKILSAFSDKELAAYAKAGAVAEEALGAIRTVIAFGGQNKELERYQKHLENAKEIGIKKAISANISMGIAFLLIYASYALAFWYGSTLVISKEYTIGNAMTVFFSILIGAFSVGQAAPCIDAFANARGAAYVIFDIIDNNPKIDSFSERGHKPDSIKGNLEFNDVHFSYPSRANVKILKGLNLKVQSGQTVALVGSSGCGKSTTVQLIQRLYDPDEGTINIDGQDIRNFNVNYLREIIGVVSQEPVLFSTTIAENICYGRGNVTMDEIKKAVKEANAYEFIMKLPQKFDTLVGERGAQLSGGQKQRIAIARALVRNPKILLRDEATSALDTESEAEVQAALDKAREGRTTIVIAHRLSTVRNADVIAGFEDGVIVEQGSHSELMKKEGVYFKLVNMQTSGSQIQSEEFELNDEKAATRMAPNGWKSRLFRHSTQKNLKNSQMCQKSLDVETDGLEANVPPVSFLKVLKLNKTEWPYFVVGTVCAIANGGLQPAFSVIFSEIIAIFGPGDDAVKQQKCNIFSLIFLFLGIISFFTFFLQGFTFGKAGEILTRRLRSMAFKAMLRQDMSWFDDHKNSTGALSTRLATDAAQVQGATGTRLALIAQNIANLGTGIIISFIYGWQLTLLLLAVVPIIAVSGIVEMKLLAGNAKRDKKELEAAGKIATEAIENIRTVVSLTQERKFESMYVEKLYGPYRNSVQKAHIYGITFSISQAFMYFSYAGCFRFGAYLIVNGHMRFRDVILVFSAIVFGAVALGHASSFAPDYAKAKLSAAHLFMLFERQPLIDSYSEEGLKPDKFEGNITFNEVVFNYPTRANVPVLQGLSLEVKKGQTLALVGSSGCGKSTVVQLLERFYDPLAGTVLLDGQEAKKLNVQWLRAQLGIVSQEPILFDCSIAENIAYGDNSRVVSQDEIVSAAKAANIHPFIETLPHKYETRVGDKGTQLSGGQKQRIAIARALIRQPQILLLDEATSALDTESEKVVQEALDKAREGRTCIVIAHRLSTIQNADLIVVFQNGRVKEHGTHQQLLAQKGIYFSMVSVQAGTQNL
T2 sequence (Q00535 whole entry, species assumed): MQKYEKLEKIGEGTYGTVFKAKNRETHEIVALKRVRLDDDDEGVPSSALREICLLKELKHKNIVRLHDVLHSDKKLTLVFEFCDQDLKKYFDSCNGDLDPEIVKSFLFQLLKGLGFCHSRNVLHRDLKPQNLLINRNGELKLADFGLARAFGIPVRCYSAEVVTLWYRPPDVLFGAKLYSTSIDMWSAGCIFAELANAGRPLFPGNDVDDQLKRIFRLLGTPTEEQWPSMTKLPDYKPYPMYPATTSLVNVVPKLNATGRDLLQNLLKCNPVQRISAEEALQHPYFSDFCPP
T2 sequence (Q15078 99-307 partner limits assumed, species assumed): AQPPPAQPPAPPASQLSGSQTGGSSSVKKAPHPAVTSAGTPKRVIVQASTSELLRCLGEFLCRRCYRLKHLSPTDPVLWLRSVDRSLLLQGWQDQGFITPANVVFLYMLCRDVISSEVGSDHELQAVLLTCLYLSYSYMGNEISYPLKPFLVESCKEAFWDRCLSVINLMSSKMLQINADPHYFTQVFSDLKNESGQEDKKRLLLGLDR

Row | Structure (SMILES) | IC50 (CDK2/A) [µM] | IC50 (CDK5/p25) [µM] | IC50 (DYRK1A) [µM] | inhibition of ABCB4-WT-mediated PC secretion compared to roscovitine (ABCB4-WT) | log IC50 on the PC secretion activity of ABCB4-WT (ABCB4-WT) | IC50 (ABCB4-WT) [µM] | relocalisation of ABCB4-I541F at bile canaliculi (ABCB4-I541F; 25 μM) | relocalisation of ABCB4-I541F at bile canaliculi (ABCB4-I541F; 100 μM) | relocalisation of ABCB4-L556R at bile canaliculi (ABCB4-L556R [1]) | rescue of the maturation of ABCB4-I490T (ABCB4-I490T) | rescue of the maturation of ABCB4-L556R (ABCB4-L556R [2])
1 | CC[C@@H](Nc1nc(NCc2cccc(F)c2)c2ncn(C3CCCC3)c2n1)C(=O)O [MRT2-235] | 5.9 | 8.3 | 21 | less inhibitory than the original molecule | −4.678 | 21 | partial relocalisation of ABCB4-I541F at bile canaliculi | partial relocalisation of ABCB4-I541F at bile canaliculi | partially relocalised at bile canaliculi | dose-dependent rescue of the maturation | dose-dependent rescue of the maturation
2 | CC[C@@H](Nc1nc(NCc2cccc(Cl)c2)c2ncn(C3CCCC3)c2n1)C(=O)O [MRT2-237] | 3.4 | 7.7 | 13 | less inhibitory than the original molecule | −4.533 | 29.3 | partial relocalisation of ABCB4-I541F at bile canaliculi | partial relocalisation of ABCB4-I541F at bile canaliculi | partially relocalised at bile canaliculi | dose-dependent rescue of the maturation | dose-dependent rescue of the maturation
3 | CC[C@@H](Nc1nc(NCc2ccc(Cl)c(F)c2)c2ncn(C3CCCC3)c2n1)C(=O)O [MRT2-243] | 3 | 6.3 | 12 | less inhibitory than the original molecule | −4.754 | 17.6 | partial relocalisation of ABCB4-I541F at bile canaliculi | partial relocalisation of ABCB4-I541F at bile canaliculi | partially relocalised at bile canaliculi | dose-dependent rescue of the maturation | dose-dependent rescue of the maturation
